# Test system: Male Wistar rats
# Experiment: Refeeding after 24 h fast, subcutaneous injection, sham operated or AP-SFO lesioned rats
# Assay type: in vivo, rat
# Procedure: Male Wistar rats were either sham operated or subjected to electrolytic lesions of the AP, SFO or both. Two weeks were allowed for recovery after surgeries while body weight, food and water intake were measured daily. Then rats, which were fasted for 24 hours, were subcutaneously injected with anorexigenic doses of PYY-HAS, PYY or saline (for controls) following which free access to food was reallowed. Food and water intake were measured for 24 hours following drug injections. […] However, the anorexigenic effect of both peptides was delayed in AP-SFO-lesioned rats, 1 hour in PYY treated rats and 2 hours in PYY-HAS treated rats.
substance,measurement,setting,value
PYY,delay of anorexigenic effect in AP-SFO-lesioned rats,AP-SFO-lesioned rats,1 h
same,body weight gain after food deprivation,after 24 hours fast,did not
same,persistence of anorexigenic effect during refeeding,after 24 hours fast,only during the first two hours of refeeding
same,time of maximum anorexigenic effect,after 24 hours fast,1 h
